Measurements: publication PMC9598282 (Antibiotics, 2022)
Bridge positions count the residues as written; N and C are the ends. Square brackets hold non-standard residues; d marks the D form. Peptide text beside a SMILES is read from it. Dab = NCC[C@H](N)C(=O)O

Assays:
E. coli ATCC 25922 = type: cell-based, Escherichia coli; conditions: ATCC 25922, 18 h
Experimental: For the preparation of the bacterial solution, overnight grown culture was diluted in 0.85% saline solution, adjusted to 0.5 McFarland turbidity and further diluted in Mueller–Hinton broth for inoculation to a final concentration of 5 × 10^5 colony forming units/mL (CFU/mL). The agents were serially diluted two-fold in a 96-well plate, and equal volumes of bacterial solution were subsequently added to the designated wells. The well consisting of bacterial solution served as the positive control, while the well containing only media served as the negative control. The plate was then incubated at 37 °C for 18 h. After incubation, an Emax Plus microplate reader (Molecular Devices, Union City, CA, USA) was used to measure the optical density (OD) at a wavelength of 590 nm to confirm the turbidity. The antibacterial activity corresponded to the MIC, which is defined as the lowest concentration of the agent necessary to inhibit visible bacterial growth.

P. aeruginosa 101243 = test: Checkerboard assay; type: cell-based, Pseudomonas aeruginosa
Experimental: (§1) The adjuvant properties of the guanidinylated polymyxins were evaluated using the checkerboard assay as previously described. The bacterial solution was prepared as described in the antimicrobial susceptibility assay. The antibiotic of interest and the adjuvant were serially diluted two-fold along the x- and y-axis on a 96-well plate, respectively, resulting in varying concentrations of both agents in each well. Equal volumes of bacterial solution were added to the designated wells. The well consisting of bacterial solution served as the positive control, while the wells containing only media served as the negative control. The plate was then incubated at 37 °C for 18 h. After incubation, an Emax Plus microplate reader (Molecular Devices, Union City, CA, USA) was used to measure the OD at a wavelength of 590 nm to confirm the turbidity. The fractional inhibitory concentration (FIC) index was then determined to establish the relationship between the antibiotic and adjuvant. The FIC index corresponds to the sum of the FICs of the antibiotic and adjuvant. The FIC of each agent is calculated by dividing its MIC when it is used in combination by its MIC when used alone. FIC indices ≤0.5, 0.5 < x ≤ 4 and >4 indicate synergy, additivity and antagonism, respectively.

P. aeruginosa P259-96918 = test: Checkerboard assay; type: cell-based, Pseudomonas aeruginosa
Experimental: as §1

[1] = system: P. aeruginosa P262-101856; test: Checkerboard assay; type: cell-based, Pseudomonas aeruginosa
Experimental: as §1

[2] = system: P. aeruginosa P264-104354; test: Checkerboard assay; type: cell-based, Pseudomonas aeruginosa
Experimental: as §1

E. cloacae 121187 = test: microbe, parasite or virus in culture; type: cell-based, Enterobacter cloacae
Experimental: as §1

E. cloacae 118564 = test: Checkerboard assay; type: cell-based, Enterobacter cloacae
Experimental: as §1

K. pneumoniae 113250 = test: Checkerboard assay; type: cell-based, Klebsiella pneumoniae
Experimental: as §1

K. pneumoniae 113254 = test: Checkerboard assay; type: cell-based, Klebsiella pneumoniae
Experimental: as §1

[3] = agent alone, one value per checkerboard plate

CC(C)C[C@@H]1NC(=O)[C@@H](Cc2ccccc2)NC(=O)[C@H](CCN)NC(=O)[C@@H](NC(=O)[C@H](CCN)NC(=O)[C@@H](N)[C@@H](C)O)CCNC(=O)[C@H]([C@@H](C)O)NC(=O)[C@H](CCN)NC(=O)[C@H](CCN)NC1=O [PMBN, polymyxin B nonapeptide] (H-T[Dab][Dab][Dab][dF]L[Dab][Dab]T; lactam 3-C (inferred); N-terminus assumed)
1: Fold-potentiation of erythromycin (P. aeruginosa 101243; with 8 μg/mL adjuvant) | Fold-potentiation of ceftazidime ([2]; with 2 μg/mL adjuvant) | Fold-potentiation of erythromycin ([2]; with 2 μg/mL adjuvant) | Fold-potentiation of erythromycin (E. cloacae 121187; with 8 μg/mL adjuvant) | Fold-potentiation of rifampicin (E. cloacae 121187; with 8 μg/mL adjuvant)
4: Fold-potentiation of ceftazidime (P. aeruginosa P259-96918; with 4 μg/mL adjuvant) | Fold-potentiation of ceftazidime ([1]; with 8 μg/mL adjuvant) | Fold-potentiation of erythromycin (E. cloacae 118564; with 8 μg/mL adjuvant) | Fold-potentiation of erythromycin (K. pneumoniae 113254; with 8 μg/mL adjuvant) | Fold-potentiation of rifampicin (K. pneumoniae 113254; with 8 μg/mL adjuvant)
2: Fold-potentiation of aztreonam (P. aeruginosa 101243; with 8 μg/mL adjuvant) | Fold-potentiation of aztreonam ([2]; with 2 μg/mL adjuvant)
8: Fold-potentiation of ceftazidime (P. aeruginosa 101243; with 8 μg/mL adjuvant) | Fold-potentiation of rifampicin (P. aeruginosa 101243; with 8 μg/mL adjuvant) | Fold-potentiation of aztreonam (P. aeruginosa P259-96918; with 4 μg/mL adjuvant) | Fold-potentiation of erythromycin (P. aeruginosa P259-96918; with 4 μg/mL adjuvant) | Fold-potentiation of aztreonam ([1]; with 8 μg/mL adjuvant) | Fold-potentiation of rifampicin (E. cloacae 118564; with 8 μg/mL adjuvant) | Fold-potentiation of erythromycin (K. pneumoniae 113250; with 8 μg/mL adjuvant) | Fold-potentiation of rifampicin (K. pneumoniae 113250; with 8 μg/mL adjuvant)
64: Fold-potentiation of rifampicin ([2]; with 2 μg/mL adjuvant)
256 µg/mL: MIC alone (E. cloacae 121187; 121187, 18 h)
> 256 µg/mL: MIC alone (P. aeruginosa 101243; [3]) | MIC alone (P. aeruginosa P259-96918; [3]) | MIC alone [1, 3] | MIC alone [2, 3] | MIC alone (E. cloacae 121187; [3]) | MIC alone (E. cloacae 118564; [3]) | MIC alone (K. pneumoniae 113250; [3]) | MIC alone (K. pneumoniae 113254; [3])
128: Fold-potentiation of rifampicin (P. aeruginosa P259-96918; with 4 μg/mL adjuvant)
16: Fold-potentiation of erythromycin ([1]; with 8 μg/mL adjuvant) | Fold-potentiation of rifampicin ([1]; with 8 μg/mL adjuvant)
>256 µg/mL: MIC (E. coli ATCC 25922)
